Data from patent publication US20050267014A1, “Pharmaceutical composition comprising factor VII polypeptides and tranexamic acid” (Novo Nordisk HealthCare A/G, priority 2001, published 2005).

Tests used:
whole human blood = test: Whole blood rotation thrombelastography (ROTEG) clot strength; conditions: tranexamic acid in addition to FVIIa, tPA 2 nM
[1] = test system: clots formed by normal human plasma; test: Clot lysis assay, normal human plasma diluted 10-fold, turbidity at 650 nm; type: biochemical; conditions: in the presence of 10 nM FVIIa
Method: Clot lysis assay: Normal human plasma diluted 10-fold with buffer (20 mM HEPES, 150 mM NaCl, 5 mM CaCl, pH 7.4) containing lapidated recombinant tissue factor (Innovin, Dade Behring, 2000-fold dilution), rFVIIa (Novo Nordisk A/S Bagsvaerd, Denmark, various concentrations) and t-PA (American Diagnostica, 8 nM) was added to 96-well ELISA plates and turbidity at 650 nm was measured over time at room temperature. Where indicated, Tranexamic acid (Sigma, various concentrations) was included.

In the case of `NC[C@H]1CC[C@H](C(=O)O)CC1` [Tranexamic acid], the “mechanical strength of the clot” value (whole human blood) is reported as “increased the mechanical strength of the clot”, the “overall survival time of the clot” value (whole human blood) is reported as “increased” and the “Tranexamic acid concentration at which prolongation of clot lysis time was optimal” value [1] is reported as 1 µM. The “effect on clot lysis time” value ([1]; t-PA 8 nM) was “further prolongation of the clot lysis time”.
